As a reminder, the IC50 is the concentration that inhibits the measured activity by half. A low value points to greater potency.

For one compound, IC50 results are on record in patent US11446292B2, “Compounds and conjugates thereof” (MedImmune Limited, priority 2019, dated 2022).

Each structure is given as a SMILES string.

The assay deals with NCI-N87 cells. The assay is described as follows: In vitro assay of warhead, cell viability by MTS. The settings on record: Homo sapiens, 168 h, 7 days incubation, mean of three independent replicates. Format: cell-based. Here is the method:
Solid test material was dissolved in DMSO to a 2 mM stock solution, from which eight serial dilutions were made at a 1:10 ratio in DMSO and stored at −20° C. until use.
Adherent NCI-N87 cells were washed with D-PBS and detached with Trypsin-EDTA, cell density and viability were then determined in duplicate by Trypan blue exclusion assay using an automated cell counter (LUNA-II™). Cell suspension was diluted to 1×10^5 cells/ml in growth media (RPMI 1640 with Glutamax+10% (v/v) HyClone™ Fetal Bovine Serum) and vortexed before dispensing 2 mL per well into sterile 3 mL polypropylene plates. Warhead dilutions were then dispensed into the appropriate wells at 10 μl/well and mixed by repeat pipetting. […] At the end of the incubation period time (7 days), cell viability was measured by CellTiter 96 ™ aqueous One (MTS) assay, which was dispensed at 20 μl/well and incubated for 4 hours at 37° C., 5% CO2. Plates were then read on an EnVision™ Multi-label Plate Reader (Perkin Elmer) using absorbance at 490 nm.
Cell survival percentage was calculated from the mean absorbance of the 2 replicate wells for each sample, compared to the mean absorbance in the two control wells treated with DMSO only (100%). The IC50 was determined by fitting each data set to sigmoidal dose-response curves with a variable slope using the non-linear curve fit algorithm on the GraphPad Prism software (San Diego, Calif.). […]

Consider `CC[C@@]1(O)C(=O)OCc2c1cc1n(c2=O)Cc2c-1nc1ccc(N)c3c1c2CCC3` [Compound I11, (S)-4-amino-9-ethyl-9-hydroxy-1,2,3,9,12,15-hexahydro-10H,13H-benzo[de]pyrano[3′,4′:6,7]indolizino[1,2-b]quinoline-10,13-dione], for which half-maximal inhibition (IC50) required 385 pM.
